Test results published in PubChem BioAssay (NCI).
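Dose response: 5 concentrations. Exposure: 48 h. Format: 96-well plates. Endpoint: linear interpolation; highest concentration if not reached. The concentration for 50% growth inhibition is given as GI50. TGI denotes the concentration required for complete inhibition of growth.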

Tests used:
Assay in all cases: inhibition of tumour cell growth, NCI panel, 48 h; in the data active = GI50 below about 0.43 µM; inactive = the rest
786-0 renal = test system: 786-0 renal
A498 renal = test system: A498 renal
A549 NSCLC = test system: A549 NSCLC
BT-549 breast = test system: BT-549 breast
CAKI-1 renal = test system: CAKI-1 renal
CCRF-CEM leukemia = test system: CCRF-CEM leukemia
COLO 205 colon = test system: COLO 205 colon
DU-145 prostate = test system: DU-145 prostate
EKVX NSCLC = test system: EKVX NSCLC
HCC-2998 colon = test system: HCC-2998 colon
HCT-116 colon = test system: HCT-116 colon
HCT-15 colon = test system: HCT-15 colon
HL-60(TB) leukemia = test system: HL-60(TB) leukemia
HS 578T breast = test system: HS 578T breast
HT29 colon = test system: HT29 colon
IGROV1 ovarian = test system: IGROV1 ovarian
K-562 leukemia = test system: K-562 leukemia
KM12 colon = test system: KM12 colon
LOX IMVI melanoma = test system: LOX IMVI melanoma
M14 melanoma = test system: M14 melanoma
MALME-3M melanoma = test system: MALME-3M melanoma
MCF7 breast = test system: MCF7 breast
MDA-MB-231 breast = test system: MDA-MB-231 breast
MDA-MB-435 = test system: MDA-MB-435
MDA-N = test system: MDA-N
MOLT-4 leukemia = test system: MOLT-4 leukemia
NCI-H226 lung = test system: NCI-H226 lung
NCI-H23 lung = test system: NCI-H23 lung
NCI-H460 lung = test system: NCI-H460 lung
NCI-H522 lung = test system: NCI-H522 lung
NCI/ADR-RES ovarian = test system: NCI/ADR-RES ovarian
OVCAR-3 ovarian = test system: OVCAR-3 ovarian
OVCAR-4 ovarian = test system: OVCAR-4 ovarian
OVCAR-5 ovarian = test system: OVCAR-5 ovarian
OVCAR-8 ovarian = test system: OVCAR-8 ovarian
PC-3 prostate = test system: PC-3 prostate
RPMI-8226 leukemia = test system: RPMI-8226 leukemia
RXF 393 renal = test system: RXF 393 renal
SF-268 CNS = test system: SF-268 CNS
SF-539 CNS = test system: SF-539 CNS
SK-MEL-2 melanoma = test system: SK-MEL-2 melanoma
SK-MEL-28 melanoma = test system: SK-MEL-28 melanoma
SK-MEL-5 melanoma = test system: SK-MEL-5 melanoma
SK-OV-3 ovarian = test system: SK-OV-3 ovarian
SN12C renal = test system: SN12C renal
SNB-19 CNS = test system: SNB-19 CNS
SNB-75 CNS = test system: SNB-75 CNS
SR leukemia = test system: SR leukemia
SW-620 colon = test system: SW-620 colon
T-47D breast = test system: T-47D breast
TK-10 renal = test system: TK-10 renal
U251 CNS = test system: U251 CNS
UACC-257 melanoma = test system: UACC-257 melanoma
UACC-62 melanoma = test system: UACC-62 melanoma
UO-31 renal = test system: UO-31 renal
ACHN renal = test system: ACHN renal
HOP-62 NSCLC = test system: HOP-62 NSCLC
HOP-92 NSCLC = test system: HOP-92 NSCLC
SF-295 CNS = test system: SF-295 CNS

Cc1ccc(-n2c(O)c3c(N)n[nH]c3c(C#N)c2=O)cc1
> 100 µM: TGI (786-0 renal) | TGI (A498 renal) | TGI (A549 NSCLC) | TGI (BT-549 breast) | TGI (CAKI-1 renal) | TGI (CCRF-CEM leukemia) | TGI (COLO 205 colon) | TGI (DU-145 prostate) | TGI (EKVX NSCLC) | TGI (HCC-2998 colon) | TGI (HCT-116 colon) | TGI (HCT-15 colon) | TGI (HL-60(TB) leukemia) | TGI (HS 578T breast) | TGI (HT29 colon) | TGI (IGROV1 ovarian) | TGI (K-562 leukemia) | TGI (KM12 colon) | TGI (LOX IMVI melanoma) | TGI (M14 melanoma) | TGI (MALME-3M melanoma) | TGI (MCF7 breast) | TGI (MDA-MB-231 breast) | TGI (MDA-MB-435) | TGI (MDA-N) | TGI (MOLT-4 leukemia) | TGI (NCI-H226 lung) | TGI (NCI-H23 lung) | TGI (NCI-H460 lung) | TGI (NCI-H522 lung) | TGI (NCI/ADR-RES ovarian) | TGI (OVCAR-3 ovarian) | TGI (OVCAR-4 ovarian) | TGI (OVCAR-5 ovarian) | TGI (OVCAR-8 ovarian) | TGI (PC-3 prostate) | TGI (RPMI-8226 leukemia) | TGI (RXF 393 renal) | TGI (SF-268 CNS) | TGI (SF-539 CNS) | TGI (SK-MEL-2 melanoma) | TGI (SK-MEL-28 melanoma) | TGI (SK-MEL-5 melanoma) | TGI (SK-OV-3 ovarian) | TGI (SN12C renal) | TGI (SNB-19 CNS) | TGI (SNB-75 CNS) | TGI (SR leukemia) | TGI (SW-620 colon) | TGI (T-47D breast) | TGI (TK-10 renal) | TGI (U251 CNS) | TGI (UACC-257 melanoma) | TGI (UACC-62 melanoma) | TGI (UO-31 renal)

Cc1cc(N=Cc2c(CO)cnc(C)c2O)c(N=Cc2c(CO)cnc(C)c2O)cc1C.[Zn]
> 100 µM: TGI (786-0 renal) | TGI (A498 renal) | TGI (A549 NSCLC) | TGI (ACHN renal) | TGI (BT-549 breast) | TGI (CAKI-1 renal) | TGI (COLO 205 colon) | TGI (DU-145 prostate) | TGI (EKVX NSCLC) | TGI (HCC-2998 colon) | TGI (HCT-116 colon) | TGI (HCT-15 colon) | TGI (HL-60(TB) leukemia) | TGI (HOP-62 NSCLC) | TGI (HOP-92 NSCLC) | TGI (HS 578T breast) | TGI (HT29 colon) | TGI (IGROV1 ovarian) | TGI (KM12 colon) | TGI (LOX IMVI melanoma) | TGI (M14 melanoma) | TGI (MCF7 breast) | TGI (MDA-MB-231 breast) | TGI (MDA-MB-435) | TGI (MDA-N) | TGI (MOLT-4 leukemia) | TGI (NCI-H226 lung) | TGI (NCI-H460 lung) | TGI (NCI-H522 lung) | TGI (NCI/ADR-RES ovarian) | TGI (OVCAR-3 ovarian) | TGI (OVCAR-4 ovarian) | TGI (OVCAR-5 ovarian) | TGI (OVCAR-8 ovarian) | TGI (PC-3 prostate) | TGI (RPMI-8226 leukemia) | TGI (RXF 393 renal) | TGI (SF-268 CNS) | TGI (SF-295 CNS) | TGI (SF-539 CNS) | TGI (SK-MEL-2 melanoma) | TGI (SK-MEL-28 melanoma) | TGI (SK-MEL-5 melanoma) | TGI (SK-OV-3 ovarian) | TGI (SN12C renal) | TGI (SNB-19 CNS) | TGI (SNB-75 CNS) | TGI (SR leukemia) | TGI (SW-620 colon) | TGI (T-47D breast) | TGI (TK-10 renal) | TGI (U251 CNS) | TGI (UACC-257 melanoma) | TGI (UACC-62 melanoma) | TGI (UO-31 renal)
inactive: GI50 (HL-60(TB) leukemia) > 100 µM | GI50 (RPMI-8226 leukemia) > 100 µM | GI50 (SR leukemia) > 100 µM
